US12448369B2 (Edgewise Therapeutics, Inc., priority 2023, dated 2025)

Columns and labels:
[1] = molecular target: T1, Porcine ventricle myofibrils (ventricular myosin ATPase) (Sus scrofa, UniProt P79293); experiment: Myofibril ATPase assay, porcine ventricle myofibrils; type: biochemical, porcine (Yucatan minipigs); conditions: porcine ventricle myofibrils
T1 construct: Myofibrils from porcine cardiac muscle was isolated from the left ventricle of Yucatan minipigs; tissue Exemplar Genetics; host or cells: left ventricle of Yucatan minipigs, myofibrils prepared in house
T1 sequence (P79293 whole entry): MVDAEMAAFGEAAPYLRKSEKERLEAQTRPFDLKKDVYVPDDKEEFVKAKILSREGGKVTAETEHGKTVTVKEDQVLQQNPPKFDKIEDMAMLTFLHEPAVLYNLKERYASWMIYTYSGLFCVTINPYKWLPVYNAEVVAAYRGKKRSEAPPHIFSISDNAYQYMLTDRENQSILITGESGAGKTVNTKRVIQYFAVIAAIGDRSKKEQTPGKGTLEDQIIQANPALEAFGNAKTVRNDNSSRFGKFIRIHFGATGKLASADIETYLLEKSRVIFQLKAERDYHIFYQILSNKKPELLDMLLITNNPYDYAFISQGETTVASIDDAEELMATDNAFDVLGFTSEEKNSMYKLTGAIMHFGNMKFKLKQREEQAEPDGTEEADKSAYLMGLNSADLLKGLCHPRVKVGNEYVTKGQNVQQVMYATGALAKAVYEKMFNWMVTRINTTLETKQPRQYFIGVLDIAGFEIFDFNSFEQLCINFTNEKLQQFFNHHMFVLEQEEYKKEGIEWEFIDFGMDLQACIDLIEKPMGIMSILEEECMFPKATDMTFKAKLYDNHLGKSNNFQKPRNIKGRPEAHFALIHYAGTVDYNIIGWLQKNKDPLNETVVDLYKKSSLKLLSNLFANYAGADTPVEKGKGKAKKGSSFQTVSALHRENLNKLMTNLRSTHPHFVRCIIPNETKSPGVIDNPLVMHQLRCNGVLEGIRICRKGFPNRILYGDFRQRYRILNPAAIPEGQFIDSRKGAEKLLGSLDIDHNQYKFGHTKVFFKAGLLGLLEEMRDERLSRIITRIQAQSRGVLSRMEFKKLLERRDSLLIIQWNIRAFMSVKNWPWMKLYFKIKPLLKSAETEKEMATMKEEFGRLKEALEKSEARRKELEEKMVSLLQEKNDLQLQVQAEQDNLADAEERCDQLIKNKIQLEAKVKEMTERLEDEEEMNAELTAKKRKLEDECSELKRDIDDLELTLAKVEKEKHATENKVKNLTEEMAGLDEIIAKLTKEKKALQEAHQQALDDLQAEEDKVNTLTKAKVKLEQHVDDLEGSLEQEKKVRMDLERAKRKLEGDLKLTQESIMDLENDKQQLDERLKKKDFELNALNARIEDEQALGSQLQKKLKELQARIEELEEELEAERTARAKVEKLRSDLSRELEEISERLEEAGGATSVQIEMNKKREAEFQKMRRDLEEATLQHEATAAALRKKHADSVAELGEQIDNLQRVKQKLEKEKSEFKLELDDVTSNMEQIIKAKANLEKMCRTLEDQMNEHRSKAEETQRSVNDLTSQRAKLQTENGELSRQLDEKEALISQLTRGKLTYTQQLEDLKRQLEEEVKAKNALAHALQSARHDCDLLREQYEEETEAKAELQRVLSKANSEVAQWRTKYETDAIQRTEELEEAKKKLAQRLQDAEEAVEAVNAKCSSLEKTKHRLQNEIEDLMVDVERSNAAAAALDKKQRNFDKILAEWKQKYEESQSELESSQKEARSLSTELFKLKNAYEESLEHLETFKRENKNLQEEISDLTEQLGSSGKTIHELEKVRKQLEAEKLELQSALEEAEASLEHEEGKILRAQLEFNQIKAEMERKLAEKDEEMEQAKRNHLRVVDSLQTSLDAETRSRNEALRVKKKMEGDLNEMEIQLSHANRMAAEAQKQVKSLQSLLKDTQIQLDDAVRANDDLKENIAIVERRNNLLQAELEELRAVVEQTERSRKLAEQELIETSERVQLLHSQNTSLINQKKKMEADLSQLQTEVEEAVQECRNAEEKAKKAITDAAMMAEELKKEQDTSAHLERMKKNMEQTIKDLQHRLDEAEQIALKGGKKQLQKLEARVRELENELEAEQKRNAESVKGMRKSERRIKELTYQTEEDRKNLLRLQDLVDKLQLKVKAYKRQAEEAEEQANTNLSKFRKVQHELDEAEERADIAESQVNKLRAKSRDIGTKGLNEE
Procedure: (§1) Example 1. Myofibril ATPase Assay
(§2) Myofibril ATPase assays are known in the art to be useful in evaluating small molecules for the treatment of HCM and other cardiac indications. Myosin ATPase activity is assessed by using a coupled reaction system, in which ADP generated by the myosin ATPase function is coupled to the disappearance of NADH through the pyruvate kinase/lactate dehydrogenase (PK-LDH) system. ATPase activity produces ADP, which is used as a substrate for PK to produce pyruvate and regenerate ATP. The pyruvate is then used as a substrate by LDH to oxidize NADH to NAD+. The rate of the reaction is monitored through the time-dependent disappearance of NADH using absorbance at 340 nm, which, when the couple system is in stoichiometric excess, is directly correlated to the ATPase activity of the myosin. Inhibition of ATPase activity by the assayed compounds is indicated by a reduced rate of NADH loss, relative to vehicle-treated controls, over the experimental time window. Activation of ATPase activity by the assayed compounds is indicated by an increased rate of NADH loss, relative to vehicle-treated controls, over the experimental time window. Rabbit Psoas, Porcine atria, and Porcine ventricle are the primary sources of myofibril material.
(§3) Materials: The following stock solutions and reagents were used in the Myofibril ATPase Assay:
(§4) Stock Solutions of pCa buffer. Combine PIPES, CaCl2, and EGTA solutions with water. Adjust pH to 7.0 and bring final volume to 100 mL.
(§5) Buffer A & Buffer B. Prepare buffers A and B according to the table below.
(§6) Myofibril ATPase Assay Procedure: BSA, ATP, NADH, PEP, and DTT solutions were thawed at room temperature, then transferred to ice. Pellet-frozen myofibrils were transferred with approximately twice the required volume into a sufficiently large tube and capped. Myofibrils were thawed by rolling in a water bath for approximately 15 min at room temperature and cooled on ice. Buffers A and B were prepared by adjusting volumes as necessary for required number of wells and stored on ice. 0.5 μL of the compounds to be assayed were added into wells. 25 μL of Buffer A was dispensed into the wells, followed by 25 μL of Buffer B. The wells were measured for absorbance at 340 nm, using a kinetic protocol in which the wells are read every 1.5-2 min for 75 min. Assay data analysis was performed using a python script that filtered the raw data to retain those points falling between a starting and ending time and between a maximum and minimum absorbance, then used the filtered time-domain 340 nm absorbance data in each well to calculate a slope via linear regression analysis in units of mAU/min. Compound slopes were normalized between 100% and 0% activity, where 100% represented the slope of wells containing only compound vehicle, and fit to a 4-parameter logistic model. In addition to the fit parameters, the EC25% values were calculated, relative to the 100% normalized value. Additionally, the Y125 values were calculated for compounds that increased myosin ATP-ase activity. Fit parameters, calculated effective concentrations, filtered raw data, and calculated slopes were exported, in addition to compound-specific graphs of normalized ATPase activity versus concentration in μM. Each value reported in Table 5, Table 6, and Table 7 is either a Y75 value or a Y125 value. Values without a double cross sign, ‡, are Y75 values, which reflect the concentration required to reduce myosin ATP-ase activity by 25% (e.g., Y-axis activity value is 75% of initial value), relative to myosin ATP-ase activity in the absence of exogenous compound.
Cardiac Myofibril Isolation:
Myofibrils from porcine cardiac muscle was isolated from the left ventricle of Yucatan minipigs. Myofibrils were prepared using a method based upon those described in Herrmann et al. (1993) and summarized here. […]

[2] = test system: Porcine atria myofibrils (atrial myosin ATPase); experiment: Myofibril ATPase assay, porcine atria myofibrils; type: biochemical; conditions: porcine atria myofibrils
Procedure: as §1, §2, §3, §4, §5, §6
(§7) Myofibrils from various animals and tissue types were acquired from a variety of sources: rabbit psoas muscle was purchased from Pel-Freez Biologicals (Rogers, AR) and porcine cardiac muscle was purchased from Exemplar Genetics. All myofibrils were prepared using a method based upon those described in Herrmann et al. (1993) and summarized here. […]

[3] = test system: Rabbit Psoas myofibrils (skeletal myosin ATPase); experiment: Myofibril ATPase assay, rabbit psoas (skeletal) myofibrils; type: biochemical; conditions: rabbit psoas myofibrils
Procedure: as §1, §2, §3, §4, §5, §6
Skeletal Myofibril Isolation:
as §7

[4] = Y75 value (75% activity relative to no compound)

CCc1c(CC(=O)N[C@@H](C)c2ncc(C#N)cn2)c(=O)[nH]c2ccc(F)c(C)c12 (single isomer, unassigned) [compound 2002]
Ventricular EC25 ([1]; Y75 value (no ‡ mark)): 0.21 µM
Atrial EC25 ([2]; Y75 value (no ‡ mark)): 0.29 µM
Skeletal EC25 ([3]; Y75 value (no ‡ mark)): 0.11 µM

Cc1c(CC(=O)N[C@H](C)c2ccc(C#N)cc2F)c(=O)[nH]c2cnnc(C#N)c12 [compound 171]
Ventricular EC25 ([1]; Y75 value): 100.00 µM
Atrial EC25 [2, 4]: 22.46 µM
Skeletal EC25 ([3]; Y75 value): 15.02 µM

C[C@H](NC(=O)Cc1cc2cc(F)c(F)cc2[nH]c1=O)c1ncc(C#N)cc1F (single isomer, unassigned) [compound 4]
Ventricular EC25 ([1]; Y75 value (no ‡ mark)): 0.96 µM
Atrial EC25 ([2]; Y75 value (no ‡ mark)): 4.38 µM
Skeletal EC25 ([3]; Y75 value (no ‡ mark)): 0.15 µM

CCOc1nccc2[nH]c(=O)c(CC(=O)N[C@@H](C)c3ccc(F)cc3F)c(C)c12 [compound 381]
Ventricular EC25 ([1]; Y75 value): 0.31 µM
Atrial EC25 [2, 4]: 0.10 µM
Skeletal EC25 ([3]; Y75 value): 0.01 µM

Cc1c(CC(=O)N[C@H](C)c2ncc(C#N)cc2F)c(=O)[nH]c2ccc(Cl)cc12 (single isomer, unassigned) [compound 2049]
Ventricular EC25 ([1]; Y75 value (no ‡ mark)): 0.23 µM
Atrial EC25 ([2]; Y75 value (no ‡ mark)): 0.15 µM
Skeletal EC25 ([3]; Y75 value (no ‡ mark)): 1.00 µM

Cc1c(CC(=O)N[C@@H](CO)c2ncc(C#N)cc2F)c(=O)[nH]c2ccnc(C#N)c12 (single isomer, unassigned) [compound 246]
Ventricular EC25 ([1]; Y75 value): 0.15 µM
Atrial EC25 [2, 4]: 0.13 µM
Skeletal EC25 ([3]; Y75 value): 0.03 µM

Cc1c(CC(=O)N[C@@H](C)c2ccc(F)cc2F)c(=O)[nH]c2ccnc(N3CCCC3)c12 [compound 346]
Ventricular EC25 ([1]; Y75 value): 100.00 µM
Atrial EC25 [2, 4]: 100.00 µM
Skeletal EC25 ([3]; Y75 value): 2.37 µM

C[C@@H](NC(=O)Cc1c(C2CC2)c2cc(F)ccc2[nH]c1=O)c1ncc(C#N)cc1F [compound 39]
Ventricular EC25 ([1]; Y75 value (no ‡ mark)): 100.00 µM
Atrial EC25 ([2]; Y75 value (no ‡ mark)): 100.00 µM
Skeletal EC25 ([3]; Y75 value (no ‡ mark)): 100.00 µM

N#Cc1cnc2c(n1)CC[C@@H]2NC(=O)Cc1cc2cc(F)c(F)cc2[nH]c1=O [compound 1083]
Ventricular EC25 ([1]; Y75 value (no ‡ mark)): 100.00 µM
Atrial EC25 ([2]; Y75 value (no ‡ mark)): 5.80 µM
Skeletal EC25 ([3]; Y75 value (no ‡ mark)): 4.15 µM

Cc1c(C2(C(=O)N[C@H](C)c3cc(C#N)ccn3)CC2)c(=O)[nH]c2ccc(F)cc12 (single isomer, unassigned) [compound 2577]
Ventricular EC25 ([1]; Y75 value (no ‡ mark)): 100.00 µM
Atrial EC25 ([2]; Y75 value (no ‡ mark)): 19.55 µM
Skeletal EC25 ([3]; Y75 value (no ‡ mark)): 100.00 µM

Cc1c(CC(=O)N[C@@H](C)c2ccc(C#N)cn2)c(=O)[nH]c2ccc(F)c(C#N)c12 [compound 50]
Ventricular EC25 ([1]; Y75 value (no ‡ mark)): 0.23 µM
Atrial EC25 ([2]; Y75 value (no ‡ mark)): 0.05 µM
Skeletal EC25 ([3]; Y75 value (no ‡ mark)): 0.02 µM

Cc1ccncc1[C@@H](C)NC(=O)Cc1c(C)c2cc(F)ccc2[nH]c1=O [compound 1048]
Ventricular EC25 ([1]; Y75 value (no ‡ mark)): 1.73 µM
Atrial EC25 ([2]; Y75 value (no ‡ mark)): 0.29 µM
Skeletal EC25 ([3]; Y75 value (no ‡ mark)): 2.2 µM

Cc1ccc2[nH]c(=O)c(CC(=O)N[C@@H](C)c3ccc(F)cc3F)c(C(F)(F)F)c2n1 [compound 419]
Ventricular EC25 ([1]; Y75 value): 100.00 µM
Atrial EC25 [2, 4]: 0.49 µM
Skeletal EC25 ([3]; Y75 value): 0.19 µM

C[C@H](NC(=O)Cc1cc2c(Cl)nccc2[nH]c1=O)c1ccc(F)cc1F [compound 439]
Ventricular EC25 ([1]; Y75 value): 0.47 µM
Atrial EC25 [2, 4]: 0.06 µM
Skeletal EC25 ([3]; Y75 value): 0.10 µM

Cc1nccc2[nH]c(=O)c(CC(=O)N[C@@H](C)c3ccc(F)cc3F)c(C(F)(F)F)c12 [compound 430]
Ventricular EC25 ([1]; Y75 value): 11.63 µM
Atrial EC25 [2, 4]: 0.38 µM
Skeletal EC25 ([3]; Y75 value): 0.25 µM

Cc1nccc2[nH]c(=O)c(CC(=O)N[C@H](CO)c3ccccn3)c(C)c12 (single isomer, unassigned) [compound 316]
Ventricular EC25 ([1]; Y75 value): 100.00 µM
Atrial EC25 [2, 4]: 100.00 µM
Skeletal EC25 ([3]; Y75 value): 100.00 µM

Cc1cc([C@@H](C)NC(=O)Cc2c(C)c3cc(F)ccc3[nH]c2=O)ncc1F [compound 1060]
Ventricular EC25 ([1]; Y75 value (no ‡ mark)): 100.00 µM
Atrial EC25 ([2]; Y75 value (no ‡ mark)): 13.11 µM
Skeletal EC25 ([3]; Y75 value (no ‡ mark)): 100.00 µM

Cc1c(CC(=O)N[C@@H](C)c2ccc(C#N)cn2)c(=O)[nH]c2ccnc(C#N)c12 [compound 158]
Ventricular EC25 ([1]; Y75 value): 1.80 µM
Atrial EC25 [2, 4]: 0.43 µM
Skeletal EC25 ([3]; Y75 value): 0.06 µM

C[C@@H](NC(=O)C1(c2cc3cc(F)ccc3[nH]c2=O)CC1)c1cc(C#N)ccn1 (single isomer, unassigned) [compound 2536]
Ventricular EC25 ([1]; Y75 value (no ‡ mark)): 100.00 µM
Atrial EC25 ([2]; Y75 value (no ‡ mark)): 30.59 µM
Skeletal EC25 ([3]; ‡ Y125 value, not a Y75 value (125% activity relative to no compound)): 77.37‡ μM

COc1ccc2[nH]c(=O)c(CC(=O)N[C@@H](C)c3ccc(F)cc3F)cc2c1C [compound 92]
Ventricular EC25 ([1]; Y75 value (no ‡ mark)): 100.00 µM
Atrial EC25 ([2]; Y75 value (no ‡ mark)): 29.94 µM
Skeletal EC25 ([3]; Y75 value (no ‡ mark)): 2.83 µM

Cc1cc(C#N)cnc1[C@@H](C)NC(=O)Cc1c(O)c2c(C)c(F)ccc2[nH]c1=O [compound 1122]
Ventricular EC25 ([1]; Y75 value (no ‡ mark)): 38.45 µM
Atrial EC25 ([2]; Y75 value (no ‡ mark)): 9.16 µM
Skeletal EC25 ([3]; Y75 value (no ‡ mark)): 6.95 µM

C[C@H](NC(=O)C(F)(F)c1cc2c(F)c(F)ccc2[nH]c1=O)c1cc(C#N)ccn1 (single isomer, unassigned) [compound 2558]
Ventricular EC25 ([1]; Y75 value (no ‡ mark)): 81.97 µM
Atrial EC25 ([2]; Y75 value (no ‡ mark)): 31.66 µM
Skeletal EC25 ([3]; Y75 value (no ‡ mark)): 100.00 µM

Cc1c(CC(=O)N[C@H](CO)c2ncc(C#N)cc2F)c(=O)[nH]c2cnnc(C#N)c12 [compound 163]
Ventricular EC25 ([1]; Y75 value): 100.00 µM
Atrial EC25 [2, 4]: 0.94 µM
Skeletal EC25 ([3]; Y75 value): 12.34 µM

Cc1nccc2[nH]c(=O)c(CC(=O)N[C@@H](C)c3ccccn3)c(C)c12 (single isomer, unassigned) [compound 325]
Ventricular EC25 ([1]; Y75 value): 100.00 µM
Atrial EC25 [2, 4]: 100.00 µM
Skeletal EC25 ([3]; Y75 value): 1.57 µM

Cc1c(CC(=O)N[C@H](C)c2ccc(S(C)(=O)=O)cc2F)c(=O)[nH]c2ccnc(C#N)c12 (single isomer, unassigned) [compound 214]
Ventricular EC25 ([1]; Y75 value): 100.00 µM
Atrial EC25 [2, 4]: 100.00 µM
Skeletal EC25 ([3]; Y75 value): 23.30 µM

Cc1c(CC(=O)N[C@@H](CO)c2ncc(C#N)cc2F)c(=O)[nH]c2cnnc(C#N)c12 [compound 164]
Ventricular EC25 ([1]; Y75 value): 22.06 µM
Atrial EC25 [2, 4]: 2.51 µM
Skeletal EC25 ([3]; Y75 value): 1.12 µM

COc1nccc2[nH]c(=O)c(CC(=O)N[C@@H](C)c3ccc(F)cc3F)c(C(F)(F)F)c12 [compound 423]
Ventricular EC25 ([1]; Y75 value): 100.00 µM
Atrial EC25 [2, 4]: 100.00 µM
Skeletal EC25 ([3]; Y75 value): 0.34 µM

Cc1nccc2[nH]c(=O)c(CC(=O)N[C@@H](C)c3cccc(O)n3)c(C)c12 (single isomer, unassigned) [compound 298]
Ventricular EC25 ([1]; Y75 value): 100.00 µM
Atrial EC25 [2, 4]: 100.00 µM
Skeletal EC25 ([3]; Y75 value): 100.00 µM

Cc1nccc2[nH]c(=O)c(CC(=O)N[C@H](c3ccc(F)cc3F)C(C)(C)O)c(C)c12 (single isomer, unassigned) [compound 272]
Ventricular EC25 ([1]; Y75 value): 100.00 µM
Atrial EC25 [2, 4]: 100.00 µM
Skeletal EC25 ([3]; Y75 value): 100.00 µM

C[C@@H](NC(=O)Cc1cc2cc(F)ccc2[nH]c1=O)c1ccc(C#N)cn1 [compound 1125]
Ventricular EC25 ([1]; Y75 value (no ‡ mark)): 100.00 µM
Atrial EC25 ([2]; Y75 value (no ‡ mark)): 18.28 µM
Skeletal EC25 ([3]; Y75 value (no ‡ mark)): 100.00 µM

Cc1nncc2[nH]c(=O)c(CC(=O)N[C@@H](C)c3ncc(C#N)cc3F)cc12 [compound 452]
Ventricular EC25 ([1]; Y75 value): 100.00 µM
Atrial EC25 [2, 4]: 63.47 µM
Skeletal EC25 ([3]; Y75 value): 100.00 µM
